In patent US20160243190A1, “DOSES AND METHODS FOR ADM[…]” (THERAVANCE BIOPHARMA A[…], LLC, priority 2015, published 2016):
Where two headings read alike, the source gives them in different places.

Tests used:
[1] = Population PK model for telavancin from Phase 1, 2 and 3 plasma concentrations; format: in vivo; conditions: both sexes, human, intravenous, final combined population PK model, read-out: CL, population estimate ± SE (converted)
[2] = Observed outcomes in Phase 3 HABP/VABP and cSSSI studies 0015, 0017, 0018, 0019; format: in vivo, human
Excerpt: The data for the simulations was based on 1771 subjects from Studies 0015, 0017, 0018 and 0019.
The data for the analysis was based upon 579 subjects from Studies 0015, 0017, 0018 and 0019. […]

[3] = Individually predicted steady state exposure in Phase 3 subjects with PK samples; format: in vivo; conditions: human, plasma, intravenous
Method: This analysis was designed to describe the relationship between exposure and response in patients treated with telavancin.
The predicted telavancin PK profiles for each subject were generated using the individually estimated PK parameters determined during the population PK analysis based on the administered dose as recorded in the dataset. The individually estimated PK parameters for each subject were determined based upon the specific intra- and inter-individual errors determined using nonlinear mixed effect analysis.

[4] = Logistic regression of outcomes as a function of steady state exposure (AUC0-24h) in Phase 3 subjects; format: in vivo, human
Method: Logistic regression analysis was used to parameterize the relationship between exposure (AUC0-24h) and the probability of 28-day all-cause mortality, AKI (defined as a 50% increase or greater than 0.5 mg/dL increase in serum creatinine) and clinical response at test of cure (TOC) for all Phase 3 subjects. The analysis was repeated for the individual HABP/VABP and cSSSI subpopulations.
Logistic regression analyses were conducted on the Phase 3 dataset using individually predicted exposure (AUC0-24h) and the outcomes of interest (28-day all-cause mortality, AKI, and clinical response at TOC). The analysis was performed using the generalized linear model function in R specifying a binomial variance and the logit link function.
The output produced for each logistic regression analysis includes indices of fit (i.e., null and deviance residuals, Akaike's information criterion and likelihood ratio test statistics to provide an assessment of model improvement as additional parameters are included in the model).

[5] = CART (classification and regression tree) analysis of exposure and 28-day mortality; format: in vivo, human; conditions: HABP/VABP subjects with renal impairment
Method: Values were determined for each simulated clinical trial (n=100), and presented as a mean and standard deviation.
The logistic regression analysis in HABP/VABP subjects with impaired renal function (CrCl≦50 mL/min) is consistent with the results of the CART analysis in HABP/VABP subjects with renal impairment.

[6] = Phase 3 HABP/VABP subjects with PK samples, n=196
[7] = Phase 3 Total with PK samples, n=579
[8] = Phase 3 all-treated HABP/VABP subjects, n=750
[9] = Phase 3 all-treated Total, n=1771
[10] = Phase 3 all-treated cSSSI subjects, n=1021
[11] = Phase 3 cSSSI subjects with PK samples, n=383

CCCCCCCCCCNCCNC1(C)CC(OC2C(Oc3c4cc5cc3Oc3ccc(cc3Cl)[C@@H](O)[C@@H](NC(=O)[C@@H](CC(C)C)NC)C(=O)N[C@@H](CC(N)=O)C(=O)N[C@H]5C(=O)N[C@H]3C(=O)N[C@H](C(=O)N[C@H](C(=O)O)c5cc(O)c(CNCP(=O)(O)O)c(O)c5-c5cc3ccc5O)[C@H](O)c3ccc(c(Cl)c3)O4)OC(CO)C(O)C2O)OC(C)C1O (stereo partly shown) [telavancin, N^3″-[2-(decylamino)ethyl]-29-[[(phosphonomethyl)amino]methyl]vancomycin]
clearance [1]: 19.2 mL/min
AKI, Y (number of subjects) [2, 6]: Y = 39, N = 157
CURE (number of subjects) [2, 6]: CURE = 127,
MORTALITY, Y (number of subjects) [2, 6]: Y = 45, N = 151
AKI, Y (number of subjects) [2, 7]: Y = 78, N = 500,
CURE (number of subjects) [2, 7]: CURE = 449,
MORTALITY, Y (number of subjects) [2, 7]: Y = 46, N = 533
AKI, Y (number of subjects) [2, 8]: Y = 171, N = 542,
CURE (number of subjects) [2, 8]: CURE = 442,
MORTALITY, Y (number of subjects) [2, 8]: Y = 178, N = 572,
AKI, Y (number of subjects) [2, 9]: Y = 291, N = 1413,
CURE (number of subjects) [2, 9]: CURE = 1230,
MORTALITY, Y (number of subjects) [2, 9]: Y = 187, N = 1584
AKI, Y (number of subjects) [2, 10]: Y = 120, N = 871,
CURE (number of subjects) [2, 10]: CURE = 788,
MORTALITY, Y (number of subjects) [2, 10]: Y = 9, N = 1012,
AKI, Y (number of subjects) [2, 11]: Y = 39, N = 343,
CURE (number of subjects) [2, 11]: CURE = 322,
AUC0-24 at steady state ([3]; HABP/VABP subjects, n=196, read-out: AUC0-24, mean ± SD (range)): 670 ± 231 µg·h/mL
AUC0-24 at steady state ([3]; Total, n=579, read-out: AUC0-24, mean ± SD (range)): 671 ± 214 µg·h/mL
AUC0-24 at steady state ([3]; cSSSI subjects, n=383, read-out: AUC0-24, mean ± SD (range)): 671 ± 206 µg·h/mL
Steady State AUC0-24 h coefficient, Estimate; clinical response at TOC ([4]; all HABP/VABP subjects): 4.50e−4
Steady State AUC0-24 h coefficient, Pr(>|z|); clinical response at TOC ([4]; all HABP/VABP subjects): 0.495
Steady State AUC0-24 h coefficient, Estimate; clinical response at TOC ([4]; all Phase 3 subjects): 4.29e−3
Steady State AUC0-24 h coefficient, Pr(>|z|); clinical response at TOC ([4]; all Phase 3 subjects): 0.368
Steady State AUC0-24 h coefficient, Estimate; clinical response at TOC ([4]; all cSSSI subjects): 4.11e−4
Steady State AUC0-24 h coefficient, Pr(>|z|); clinical response at TOC ([4]; all cSSSI subjects): 0.557
predicted exposure with greater likelihood of 28-day mortality (CART cutpoint) [5]: greater than 767 μg·hr/mL
